# From patent publication US7144591B2, “Composition containing citronella java oil and use thereof for repelling insects” (priority 2002, dated 2006)
# Tested on: Aedes aegypti (yellow fever mosquitoes)
# Assay: Repellent activity with respect to mosquitoes, treated forearm in cage (Swiss Tropic Institute method)
# Assay type: in vivo
# Conditions: 2 ml on 250 cm^2 forearm, 400 mosquitoes in cage, hourly 10 min exposure
structure (smiles),measurement,value
"O=C(O)CC(O)(CC(=O)O)C(=O)O [PC4, citric acid]",repellent activity with respect to mosquitoes (result in words),surprisingly bad results
